# According to ChEMBL document CHEMBL4052767, “Discovery of a potent angiotensin converting enzyme inhibitor via virtual screening” (Bioorg Med Chem Lett, 2017):
# Molecular target: Angiotensin-converting enzyme (Homo sapiens) (UniProt P12821)
# Assay: Inhibition of recombinant human ACE at 100 uM using Mca-R-P-PG-F-S-A-F-K(Dnp)-OH as substrate measured every 2 mins for 8 mins by fluorescence assay
# Chain of Angiotensin-converting enzyme (Homo sapiens) (P12821 whole entry): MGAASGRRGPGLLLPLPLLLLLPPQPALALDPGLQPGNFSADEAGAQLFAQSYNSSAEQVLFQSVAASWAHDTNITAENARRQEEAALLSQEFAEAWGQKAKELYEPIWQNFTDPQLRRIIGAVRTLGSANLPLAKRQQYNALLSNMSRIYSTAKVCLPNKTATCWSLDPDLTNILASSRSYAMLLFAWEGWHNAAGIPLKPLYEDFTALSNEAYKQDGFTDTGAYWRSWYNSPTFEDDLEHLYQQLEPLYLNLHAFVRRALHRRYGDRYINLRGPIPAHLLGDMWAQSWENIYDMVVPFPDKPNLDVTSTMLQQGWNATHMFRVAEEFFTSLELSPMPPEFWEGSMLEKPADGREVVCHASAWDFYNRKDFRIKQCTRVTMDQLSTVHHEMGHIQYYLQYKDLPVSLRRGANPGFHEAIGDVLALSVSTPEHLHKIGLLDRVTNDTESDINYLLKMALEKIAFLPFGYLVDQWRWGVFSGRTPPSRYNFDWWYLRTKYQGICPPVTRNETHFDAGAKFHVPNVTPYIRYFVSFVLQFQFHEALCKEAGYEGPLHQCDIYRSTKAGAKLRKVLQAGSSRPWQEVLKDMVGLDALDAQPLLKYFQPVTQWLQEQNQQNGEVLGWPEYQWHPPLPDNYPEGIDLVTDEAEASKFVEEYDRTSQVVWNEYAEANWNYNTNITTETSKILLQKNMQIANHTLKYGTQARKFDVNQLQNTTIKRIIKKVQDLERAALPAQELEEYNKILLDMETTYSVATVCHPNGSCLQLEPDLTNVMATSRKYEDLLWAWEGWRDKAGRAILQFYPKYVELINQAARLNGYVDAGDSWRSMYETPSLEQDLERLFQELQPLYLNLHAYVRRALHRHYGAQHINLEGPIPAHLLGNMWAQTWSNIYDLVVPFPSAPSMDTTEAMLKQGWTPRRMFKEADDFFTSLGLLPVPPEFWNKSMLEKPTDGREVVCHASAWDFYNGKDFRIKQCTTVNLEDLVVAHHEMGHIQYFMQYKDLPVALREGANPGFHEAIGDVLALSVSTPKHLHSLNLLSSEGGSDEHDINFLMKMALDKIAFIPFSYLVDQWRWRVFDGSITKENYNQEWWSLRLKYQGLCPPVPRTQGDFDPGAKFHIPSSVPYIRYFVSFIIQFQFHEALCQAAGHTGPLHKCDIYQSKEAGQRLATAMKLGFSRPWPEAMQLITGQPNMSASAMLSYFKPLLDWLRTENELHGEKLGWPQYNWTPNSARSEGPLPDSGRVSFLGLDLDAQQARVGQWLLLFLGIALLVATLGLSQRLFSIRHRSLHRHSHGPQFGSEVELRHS
row,SMILES,inhibition [%]
1,C[C@@H]1O[C@@H](Oc2cc(O)c3c(=O)c(O)c(-c4ccc(O)cc4)oc3c2O)[C@H](O)[C@H](O)[C@H]1O,17.2
2,COc1cc(O)ccc1/C=C/C(=O)c1ccc(O)cc1,72.5
3,C[C@@H]1CC[C@H]2[C@@H](C)C(=O)O[C@@H]3O[C@@]4(C)CC[C@@H]1[C@]32OO4,17.1
4,COc1cc(C=O)ccc1O,41.5
5,CC[C@H]1CN2CC[C@]3(C(=O)Nc4ccccc43)[C@@H]2C[C@@H]1/C(=C\OC)C(=O)OC,10
6,C=CC(C)(C)c1cc(/C=C/C(=O)c2ccc(O)cc2)c(OC)cc1O,111
7,C[C@]1(O)C[C@@H](O)[C@]2(O)C=CO[C@@H](O[C@@H]3O[C@H](CO)[C@@H](O)[C@H](O)[C@H]3O)[C@@H]21,14.8
8,O=C(O[C@@H]1Cc2c(O)cc(O)cc2O[C@@H]1c1cc(O)c(O)c(O)c1)c1cc(O)c(O)c(O)c1,82
9,OC[C@H]1O[C@@H](Oc2cc(O)cc(/C=C/c3ccc(O)cc3)c2)[C@H](O)[C@@H](O)[C@@H]1O,8.9
10,COc1ccc(/C=C/c2cc(O)cc(O[C@@H]3O[C@H](CO)[C@@H](O)[C@H](O)[C@H]3O)c2)cc1O,18.2
